Earlier results in patent publication US20230149445A1, “OXIDATIVE STRESS INHIBITOR AND ANTIOXIDANT AGENT” (BOSQUET Silicon Corp., priority 2020, published 2023).

Details: water at 25° C.

For `[HH]` [hydrogen (H2), hydrogen], the “saturated solubility in water” value is listed as 1.6 ppm.
